Results on 88 molecules are retold here after a melting point compilation (Tetko et al.; mined from patent text by program, amines drawn as free bases though some values may be those of a salt).

Where only a bound is given, the exact number is not on record here.

The molecule `CC(=O)Oc1ccc2c(c1)C(=O)CC1C2CCC2(C)C(OC(C)=O)CCC12` (stereo not drawn) returned a melting point of 171 to 175 °C. `CCOc1ccc(-n2c(-c3ccc(SC)cc3)nc(SC)c(C#N)c2=O)cc1` had a melting point of 209 to 213 °C. Turning to `CCOC(OCC)c1ccc(C(O)(c2ccc3nc(OC)cc(-c4cccc(Cl)c4)c3c2)c2cncn2C)cc1` (stereo not drawn), the melting point turned out to be 80 °C.

In the case of `CS(=O)c1ccccc1-c1cc2[nH]c3ccc(O)cc3c2c2c1C(=O)NC2=O` (stereo not drawn), the melting point is 321 to 323 °C. In turn, `Oc1c(CN2CCCC2)cc(Nc2ccccn2)cc1CN1CCCC1` yielded a melting point of 158 to 159 °C. The molecule `CCC(=O)NCCC1CCc2cc(Br)c3c(c21)CC(C)(C)O3` (stereo not drawn) yielded a melting point of 98 to 101 °C.

For the molecule `CCC(O)c1ccc(-c2cccc(COc3ccc(CO)c(CO)c3)c2)c(C)c1` (stereo not drawn), the melting point was determined as 78 °C.

Take `O=C(O)COc1ccc2c(=O)c3c(Cl)cccc3oc2c1Cl`: the melting point was 270 to 271 °C. The value for `O=[N+]([O-])c1ccc(-c2cccc(-c3cn([C@H]4CN5CCC4CC5)nn3)c2)cn1` was 180 °C. For the molecule `COc1ccccc1C(=O)Nc1ccc(CN2C(=O)[C@H]3CCC[C@H]3N(C(=O)CN3C(=O)c4ccccc4C3=O)c3ccccc32)cc1` (relative stereo), the melting point lay in the range of 279 to 281 °C.

In the case of `CCN1CCN(C(=O)c2ccc(N)cc2Cl)CC1`, the melting point lay in the range of 123 to 124 °C. The molecule `CC(C)(C)OC(=O)NCCNC(=O)c1n[nH]cc1-c1cccc(F)c1` gave a melting point of 175 to 176 °C.

As for `O=S(=O)(c1ccc(Cl)cc1)C(c1cc(F)ccc1F)c1cc(CO)ncc1Br` (stereo not drawn), the melting point lay in the range of 172 to 173 °C. The molecule `Cc1ccc(-c2ccc(C(=O)Nc3ccc4cc(CN5CCCC5)cnc4c3)cn2)cc1` came in with a melting point of 226 to 228 °C. With `CN(C)c1cccc2c(S(=O)(=O)Nc3ccc([N+](=O)[O-])cn3)cccc12` the figure was 196 °C; with `CO[C@@H](C)CNC(=O)c1c[nH]c2ncc(-c3nn(C)c4cc(F)ccc34)nc12`, 269 to 271 °C; with `CC1(C)c2ccccc2C(C)(C)N1O`, 128 to 130 °C.

For `O=C(NCCCSc1ccncc1)c1cc(Br)c(Br)s1`, the melting point fell in the range of 129 to 130 °C. Turning to `COCc1c(I)cc(Cl)nc1OC`, the melting point is 69 to 72 °C. On to `c1ccc(-c2cn3cccnc3n2)cc1`, for which the melting point was in the range of 200 to 202 °C. On to `CC(C)C(=O)Oc1ccc2nc(NC(=O)Nc3ccccc3)sc2c1`, for which the melting point was in the range of 212 to 215 °C.

`CCn1cc(C(=O)O)c(=O)c2cc(F)c(N3CCN(S(=O)(=O)c4ccc(OC)cc4)CC3)c(F)c21` had a melting point of 252 to 253 °C. `N#Cc1cc(C(=O)NN2CCOCC2)ccc1OCC(=O)O` gave a melting point of 205 to 206 °C. The value for `CCN(C(=O)n1nnc2cc(C)ccc21)c1ccccc1` was 42 to 43 °C; that for `CC(=O)N1c2ccccc2[C@@]2(C)Cc3ccccc3[C@@]12C` (relative stereo) was 81 °C. As for `CCCCCN1C(=O)C(N)(CC(=O)c2cccs2)c2ccccc21` (stereo not drawn), the melting point was 167 to 169 °C. For `COC1C(O)C(CO)OC1n1cnc2c(N)nc(N)nc21` (stereo not drawn), the melting point is 133 to 135 °C. In turn, `Nc1nc2cc(Cl)c(Cl)cc2nc1-c1ccco1` came in with a melting point of 222 to 223 °C. The molecule `Nc1nc(-c2ccncc2O)nc2c1c(C(F)(F)F)nn2C1CCCC1` returned a melting point of 187 to 190 °C.

Molecule `CCN1CCc2cc(S(=O)(=O)C[N+](=O)[O-])ccc21` displayed a melting point of 122 °C. `COC(=O)C1Cc2sc3c(c2C1)C(c1ccccc1Cl)=NCC(=O)N3` (stereo not drawn) returned a melting point of 178 to 181 °C. Take `COC(=O)C(C)(C)c1cn2nc(Cl)ccc2n1`: the melting point was 92 to 93 °C. With `CCCOc1ncc(C#C[Si](C)(C)C)cc1-c1nc2c(CC)nn(CCN3CCOCC3)c2c(=O)[nH]1` the figure was 132 to 134 °C; with `COc1cc(C(=O)COC(C)=O)ccc1OCCCCl`, 93 to 96 °C. Molecule `CCOc1ccccc1N1CCN(Cc2nc3ccccc3[nH]2)CC1` showed a melting point of 95 to 100 °C. `CN1C(=O)CC[C@]2(C)c3ccc(C=Cc4ccccc4)cc3CC[C@@H]12` came in with a melting point of 173 to 175 °C. The value for `CC(C)NS(=O)(=O)c1ccc(S(N)(=O)=O)cc1` was 166 to 168 °C; that for `CC(=O)n1ccn(C(C)=O)c1=O` was 106 °C; that for `CCCCCCCC(=O)c1ccc(OC(C)=O)c(C(=O)O)c1` was 130 °C. For `CC(=O)Oc1ccc(-c2cnc(C)nc2Cl)cc1OC(C)=O`, the melting point was determined as 111 °C. The value for `Cc1cc(N2CCC(CC(=O)N3CCN(Cc4ccccc4)CC3)CC2)ccc1Oc1ccc(NS(=O)(=O)c2ccc(Cl)c(Cl)c2)cn1` was 151 to 155 °C; that for `Cc1cc(OCc2ccccc2)c2cc(C(=O)O)[nH]c2c1` was 178 to 180 °C. The value for `N=c1sc2cc(OC(F)(F)F)ccc2n1CCSc1ccccn1` was 104 °C; that for `CCC1c2cccn2-c2ccccc2N1S(=O)(=O)c1ccc(OC)c(C)c1` (stereo not drawn) was 124 to 126 °C.

Molecule `Cc1cccc(OC2CCN(CCc3c[nH]c4ccccc34)CC2)c1` came in with a melting point of 145 to 146 °C. The value for `O=C(O)CCCC(=O)CNC(=O)c1csc(NC(=O)NCc2ccccc2)n1` was 169 °C. The molecule `CN(C)c1ccc(C=Cc2cc3cc(O)ccc3o2)cc1` displayed a melting point of 177 to 178 °C.

`O=C1C=CC(=O)c2nccnc21`: the melting point fell in the range of 172 to 173 °C. As to `CC(C)N(CCCCO)c1cnc(-c2ccccc2)c(-c2ccccc2)n1`, the melting point fell in the range of 102 to 103 °C.

Turning to `Cc1c(Cl)cncc1Cl`, the melting point lay in the range of 46 to 47 °C. Consider `S=C(Cc1ccc2c(c1)CCO2)N1CCOCC1`, for which the melting point lay within 141 to 143 °C. In turn, `COc1ccc(-c2nc(Br)c(C(F)(F)F)[nH]2)cc1` yielded a melting point of 177 to 178 °C. On to `O=S(=O)(c1ccc(F)cc1)c1cncc(OC2SCC(O)C(O)C2O)c1` (stereo not drawn), for which the melting point lay within 93 to 96 °C. As to `COc1ccc(N2CCOCC2)cc1NC(=S)c1nc2ccc(C)nc2[nH]1`, the melting point is 189 to 191 °C. `CC=COC(=O)C1(S(=O)(=O)C(C)(C)C)C=CC=CC1C[C@H](N)C(=O)O` (stereo partly drawn) had a melting point of 88 to 89.5 °C.

`CC(C)c1nc(-c2ccccc2)c(-c2ccccc2)c(-c2ccc(F)cc2)c1CO` returned a melting point of 169 to 171 °C. `NC(=S)NN=C(COC(=O)Nc1ccccc1)c1ccccc1` registered a melting point of 155 to 165 °C. `CC(=O)NC[C@H]1CN(c2ccc(N3CCC(n4cc(C=O)nn4)CC3)c(F)c2)C(=O)O1` had a melting point of 168 to 170 °C. Molecule `CCOC(=O)/C=C1\OC(=O)c2ccccc21` gave a melting point of 132 to 134 °C. With `CCC(=O)N1Cc2c(-c3noc(C4CC4)n3)ncn2-c2ccccc21` the figure was 175 to 176 °C.

Molecule `Cc1nc(C)c(Cl)c(NCc2ccc(OCCn3c([N+](=O)[O-])cnc3C)c(Cl)n2)n1` came in with a melting point of 206 to 208 °C. Molecule `O=C1OC2(CCN(C(=O)Nc3cnc(-c4ccc(O)cc4)cn3)CC2)c2ccccc21` had a melting point of 263 to 265 °C.

For `COc1cnc(C(=O)Cc2c(Cl)cncc2Cl)cc1OC1CCCC1`, the melting point stood at 132 °C. With `CCOCCCCCCCCCCC(=O)O`, the melting point was 44 to 45.5 °C. Consider `COC(=O)c1c(O)c2cc(Cl)ccc2n1-c1ccccc1`, for which the melting point was in the range of 170 to 173 °C. With `CCn1c(=O)n(CCCCC(C)(C)O)c(=O)c2[nH]cnc21`, the melting point lay within 112 to 114 °C. Molecule `COC(=O)c1cc(-c2ccc(Cl)cc2)n(Cc2ccc(Cl)cc2Cl)n1` came in with a melting point of 105 °C. `COC(=O)N=C(NC(=O)OC)SC` displayed a melting point of 99 to 101 °C. With `Fc1ccc(Nc2ncnc3cnc(N4CCC(N5CCCC5)CC4)nc23)cc1Cl` the figure was 202 to 204 °C; with `OC(c1cscn1)(c1cscn1)C(F)(F)F`, 87 to 89 °C; with `COCCNc1ccc(S(=O)(=O)Oc2ccc(N)c([N+](=O)[O-])c2)cc1`, 105 °C. The value for `CC1(CCN2C(=O)c3cccc([N+](=O)[O-])c3C2O)OCCO1` (stereo not drawn) was 130 °C. For the molecule `CCOc1n[nH]c(=O)n1CC`, the melting point was determined as 115 °C. `O=C1Nc2ccc(C#CCCN3CCC(Cc4ccccc4)CC3)cc2C1=O` returned a melting point of 140 to 141 °C. The value for `C=CCn1cc(C(=O)OCC)c(=O)c2cc(C(=O)OC)ccc21` was 156 to 163 °C; that for `COc1cc2ncnc(Nc3cccc(Br)c3)c2cc1OCCN1CC(=O)O[C@@H](C)C1` was 190 °C. Consider `CCOC(=O)C(F)Cc1ccc(OCCN(C)c2nc3ccccc3o2)cc1` (stereo not drawn), for which the melting point lay within 65 to 67 °C.

`CC(C)(C)c1cc(C=C2CC(C)(C)N(C(N)=O)C2=O)cc(C(C)(C)C)c1O` gave a melting point of 200 to 203 °C. As for `CC(C)(C)OC(=O)C[C@H](NC(=O)c1cccc(NC(=O)C(Cc2ccc(C(=N)N)cc2)NC(=O)OC(C)(C)C)c1)C(=O)N[C@@H](Cc1cccc2ccccc12)C(=O)O` (mixture of isomers), the melting point was in the range of 263 to 265 °C.

Regarding `COC(=O)[C@@H]1COC(=O)N1c1nc(-c2ccc(Br)cc2)cs1`, the melting point was in the range of 165 to 167 °C. Regarding `CC(C)(C)c1cc(C2NC(=O)NC2c2ccccc2)cc(C(C)(C)C)c1O` (stereo not drawn), the melting point was > 300 °C.

With `Cc1cccc(C2(CNC(=O)Nc3c(C(C)C)cccc3C(C)C)CCC2)c1`, the melting point fell in the range of 148 to 151 °C.

In turn, `CC(=O)Oc1ccc(-c2cnc(-c3ccccc3)nc2Cl)cc1OC(C)=O` registered a melting point of 152 to 153 °C. `O=C(c1cc(-c2ccc(OCc3ccccc3)cc2)c(=O)n2ccc3ccsc3c12)N(CCN1CCOCC1)c1ccccc1` gave a melting point of 168 to 170 °C.

For `O=C(Nc1ccc(N2CCOCC2)cc1)c1ccccc1C(c1ccc(O)cc1)c1ccc(O)cc1`, the melting point was in the range of 151 to 155 °C. The value for `COCCNC(=O)c1nc(C(=O)OC)c2cc(Cc3ccc(F)cc3)cnc2c1OCc1ccccc1` was 94 °C; that for `CCN(CC)C(=O)c1nc(-c2cccc3ccccc23)no1` was 102 °C; that for `C=CCCCCCCCCc1nc2c(s1)NCCCC2` was 94 to 95 °C.

One may read the melting point as the temperature, or range, at which the solid turns liquid.
